Values of other authors in patent publication US20100076037A1, “Methods of Treating Neuropathic Pain with Agonists of PPAR-gamma” (priority 2006, published 2010).

Tests used:
[1] = test system: rats; conditions: intrathecal; cited from earlier work
[2] = cited from earlier work
[3] = target: PPARγ (Homo sapiens, UniProt P37231); conditions: ECV304 cell line; cited from earlier work
[4] = 3 or 30 mg/kg; cited from earlier work
[5] = test system: rats subjected to spinal cord injury; conditions: given before pioglitazone; cited from earlier work
[6] = target: T1, PPARalpha (Homo sapiens, UniProt Q07869); conditions: first value of the pair given as α/γ; read-out: EC50 for PPARalpha agonism; cited from earlier work
T1 sequence (Q07869 1-468): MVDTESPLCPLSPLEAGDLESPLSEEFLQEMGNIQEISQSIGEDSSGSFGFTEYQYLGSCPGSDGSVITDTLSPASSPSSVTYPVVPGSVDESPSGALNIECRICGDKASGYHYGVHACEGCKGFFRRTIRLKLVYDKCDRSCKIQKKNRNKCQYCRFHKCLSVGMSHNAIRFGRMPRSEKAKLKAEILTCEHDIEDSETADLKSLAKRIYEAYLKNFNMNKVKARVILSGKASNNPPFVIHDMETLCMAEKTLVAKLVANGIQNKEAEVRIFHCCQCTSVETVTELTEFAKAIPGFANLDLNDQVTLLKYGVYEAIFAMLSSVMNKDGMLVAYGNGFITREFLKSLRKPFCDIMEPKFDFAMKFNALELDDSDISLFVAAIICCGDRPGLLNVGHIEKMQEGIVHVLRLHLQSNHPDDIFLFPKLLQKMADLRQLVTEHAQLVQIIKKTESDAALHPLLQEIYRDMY

[7] = target: T2, mouse (m)PPARgamma (Mus musculus, UniProt P37238); conditions: U2 OS cells, mPPARgamma, cited from earlier work
T2 construct: expressed in transfected cells; host or cells: U2 OS
T2 sequence (P37238 whole entry): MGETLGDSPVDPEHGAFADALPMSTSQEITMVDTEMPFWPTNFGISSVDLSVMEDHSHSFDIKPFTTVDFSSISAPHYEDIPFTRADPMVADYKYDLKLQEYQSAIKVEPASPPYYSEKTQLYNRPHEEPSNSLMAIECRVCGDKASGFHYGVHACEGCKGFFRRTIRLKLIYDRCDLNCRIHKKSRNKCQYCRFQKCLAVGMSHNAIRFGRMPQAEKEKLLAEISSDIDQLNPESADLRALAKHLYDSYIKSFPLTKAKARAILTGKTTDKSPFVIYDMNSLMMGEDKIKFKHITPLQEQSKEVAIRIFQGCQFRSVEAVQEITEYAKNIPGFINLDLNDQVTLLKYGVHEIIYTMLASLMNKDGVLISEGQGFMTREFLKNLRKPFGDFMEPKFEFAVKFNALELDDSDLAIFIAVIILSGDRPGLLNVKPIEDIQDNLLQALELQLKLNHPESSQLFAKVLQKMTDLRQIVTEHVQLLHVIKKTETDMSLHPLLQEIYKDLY

[8] = target: T1, PPARalpha; conditions: U2 OS cells; cited from earlier work
[9] = target: T3, P-glycoprotein (Homo sapiens, UniProt P08183); conditions: cited from earlier work
T3 construct: host or cells: Caco2 and MDCK-MDR1 monolayers (tie to the P-gp statement is grammatically loose)
T3 sequence (P08183 whole entry): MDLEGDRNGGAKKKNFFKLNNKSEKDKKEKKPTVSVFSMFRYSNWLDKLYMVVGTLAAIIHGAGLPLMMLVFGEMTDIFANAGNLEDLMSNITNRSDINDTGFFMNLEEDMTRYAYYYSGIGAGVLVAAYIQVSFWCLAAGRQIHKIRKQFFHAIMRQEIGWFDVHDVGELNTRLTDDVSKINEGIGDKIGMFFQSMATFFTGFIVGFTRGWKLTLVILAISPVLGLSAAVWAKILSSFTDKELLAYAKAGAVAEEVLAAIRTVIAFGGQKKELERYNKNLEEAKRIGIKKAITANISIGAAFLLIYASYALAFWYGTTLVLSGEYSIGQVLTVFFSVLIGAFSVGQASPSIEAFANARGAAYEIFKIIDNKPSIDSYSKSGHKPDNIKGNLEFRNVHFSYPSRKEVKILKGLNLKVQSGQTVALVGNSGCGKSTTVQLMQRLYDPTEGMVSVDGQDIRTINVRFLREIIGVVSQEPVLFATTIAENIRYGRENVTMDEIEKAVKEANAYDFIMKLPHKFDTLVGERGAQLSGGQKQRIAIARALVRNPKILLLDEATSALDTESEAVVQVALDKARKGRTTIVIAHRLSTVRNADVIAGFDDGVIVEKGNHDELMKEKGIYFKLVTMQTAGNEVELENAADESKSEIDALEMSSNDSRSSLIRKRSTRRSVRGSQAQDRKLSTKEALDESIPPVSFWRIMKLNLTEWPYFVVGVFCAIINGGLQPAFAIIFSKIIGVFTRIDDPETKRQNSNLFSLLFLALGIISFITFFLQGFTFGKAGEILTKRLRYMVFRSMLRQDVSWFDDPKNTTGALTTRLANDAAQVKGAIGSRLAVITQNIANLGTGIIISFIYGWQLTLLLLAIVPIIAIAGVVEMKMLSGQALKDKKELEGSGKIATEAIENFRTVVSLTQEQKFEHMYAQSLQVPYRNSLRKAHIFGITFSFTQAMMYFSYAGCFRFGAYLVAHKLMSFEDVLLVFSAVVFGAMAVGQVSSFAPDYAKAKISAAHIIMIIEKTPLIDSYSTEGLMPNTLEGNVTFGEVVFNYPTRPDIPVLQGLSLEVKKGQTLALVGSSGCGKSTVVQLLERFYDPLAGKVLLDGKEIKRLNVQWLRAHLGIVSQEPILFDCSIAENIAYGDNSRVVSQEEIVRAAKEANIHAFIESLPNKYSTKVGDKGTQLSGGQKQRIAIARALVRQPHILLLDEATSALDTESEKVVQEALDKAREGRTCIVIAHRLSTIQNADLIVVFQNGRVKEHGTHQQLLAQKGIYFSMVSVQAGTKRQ

[10] = test system: multidrug resistance protein 2; conditions: Caco-2; cited from earlier work
[11] = target: mPPARalpha (Mus musculus, UniProt P23204); conditions: read-out: EC50 reporter gene assay, U2 OS cells; cited from earlier work
Sequence of mPPARalpha (P23204 whole entry): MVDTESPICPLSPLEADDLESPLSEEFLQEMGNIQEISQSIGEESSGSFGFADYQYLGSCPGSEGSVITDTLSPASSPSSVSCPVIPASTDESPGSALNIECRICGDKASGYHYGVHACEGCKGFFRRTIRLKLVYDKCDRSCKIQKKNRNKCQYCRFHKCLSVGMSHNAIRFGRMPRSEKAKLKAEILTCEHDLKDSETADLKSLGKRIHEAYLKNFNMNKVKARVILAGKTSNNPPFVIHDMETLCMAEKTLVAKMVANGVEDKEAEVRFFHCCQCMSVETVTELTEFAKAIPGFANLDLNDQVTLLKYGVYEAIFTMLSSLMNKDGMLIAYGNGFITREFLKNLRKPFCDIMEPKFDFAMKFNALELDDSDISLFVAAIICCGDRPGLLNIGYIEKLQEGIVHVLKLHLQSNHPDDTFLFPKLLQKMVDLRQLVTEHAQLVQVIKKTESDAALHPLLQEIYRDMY

[12] = test system: diabetic patients; conditions: human, in vivo; cited from earlier work

Sequence of PPARγ (P37231 whole entry, species assumed): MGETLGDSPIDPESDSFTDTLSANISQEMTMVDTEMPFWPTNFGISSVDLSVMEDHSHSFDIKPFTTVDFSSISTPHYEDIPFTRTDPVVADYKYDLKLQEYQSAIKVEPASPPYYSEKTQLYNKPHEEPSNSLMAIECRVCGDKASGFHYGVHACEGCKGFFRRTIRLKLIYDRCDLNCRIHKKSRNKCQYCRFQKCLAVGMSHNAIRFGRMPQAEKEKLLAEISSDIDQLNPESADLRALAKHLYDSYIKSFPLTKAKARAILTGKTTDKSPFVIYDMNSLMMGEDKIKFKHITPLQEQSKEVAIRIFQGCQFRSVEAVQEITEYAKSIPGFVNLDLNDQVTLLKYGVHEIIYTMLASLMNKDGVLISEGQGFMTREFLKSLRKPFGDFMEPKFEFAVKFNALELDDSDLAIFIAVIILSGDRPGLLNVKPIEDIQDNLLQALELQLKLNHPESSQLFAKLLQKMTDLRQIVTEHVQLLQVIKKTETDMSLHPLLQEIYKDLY

What does the source list for `CCCCC/C=C/C=C1/C(=O)C=C[C@@H]1C/C=C\CCCC(=O)O` [15dPGJ2]?
pain behavior [1]: reduction in pain behavior; mechanical allodynia (von Frey) ([2]; intrathecal, 7 days post-SNI): dose-dependently reduced

With `CC(C)(c1ccc(OCC2CO2)cc1)c1ccc(OCC2CO2)cc1` (stereo not drawn) [BADGE, Bisphenol A diglycidyl ether] as the compound, how does the “effect on the observed anti-allodynic effects of rosiglitazone and 15dPGJ2” value ([2]; in vivo) read?
The value was “reversed”.

What about the PPARγ activity [3] of the same compound?
Its PPARγ activity is “has PPARγ agonist activity”.

Which “threshold (in g)” value [4] does the source give for `O=C(Nc1ccccc1)c1cc([N+](=O)[O-])ccc1Cl` [GW9662, 2-chloro-5-nitro-N-phenylbenzamide] here?
The value was “increased”.

And the “effect of pretreatment on pioglitazone-induced motor function recovery” value [5]?
Its value is “completely abolished”.

For `Cc1oc(-c2ccccc2)nc1CCOc1ccc(CC2C(=O)NOC2=O)cc1` (stereo not drawn) [JTT-501], which EC50 [6] is on record?
Its EC50 is 0.4 µM.

With `CCO[C@@H](Cc1ccc(OCCN2c3ccccc3Oc3ccccc32)cc1)C(=O)O` [NNC-61-0029] as the compound, how does the EC50 [6] read?
Its EC50 is 0.6 µM.

For `Cc1cccc(Nc2cc(Cl)nc(SCC(=O)O)n2)c1C` [WY-14643], which “EC50 reporter gene assay” value [7] is on record?
Its value is “no activity”.

And the “EC50 reporter gene assay” value [8]?
Its value is “no activity”.

Which results are given for `CCOC(Cc1ccc(OCCc2ccc(OS(C)(=O)=O)cc2)cc1)C(=O)OC1OC(C(=O)O)C(O)C(O)C1O` (stereo not drawn) [acylglucuronide metabolite]?
substrate of P-glycoprotein [9]: not substrates of P-glycoprotein; transport in Caco2 and MDCK-MDR1 monolayers [10]: apparently transported by multidrug resistance protein 2

Which EC50 ([7]; read-out: EC50 reporter gene assay) does the source give for `CC(C)(Oc1ccc(CCNC(=O)c2ccc(Cl)cc2)cc1)C(=O)O` [bezafibrate] here?
Its EC50 is 23 µM.

What about the EC50 [11] of the same compound?
Its EC50 is 24 µM.

For `CCc1ccc(CCOc2ccc(CC3SC(=O)NC3=O)cc2)nc1` (stereo not drawn) [pioglitazone], which rates of edema [12] is on record?
Its rates of edema is 4.2%.
